Laboratory results: patent US8178548B2, “Anti-infective agents and uses thereof” (priority 2007, dated 2012)
Where two headings read alike, the source gives them in different places.

Tests used:
[1] = molecular target: T1, HCV polymerase 1A (Δ21 NS5B, H77) (Hepatitis C virus genotype 1a, UniProt P27958); test: biochemical
T1 construct: 20 to 50 nM Δ21 NS5B
Procedure: (§1) Either two-fold serial dilutions (fractional inhibition assay) or a narrower range of dilutions spanning the IC50 of the inhibitor (tight binding assay) of the inhibitors were incubated with 20 mM Tris-Cl pH 7.4, 2 mM MnCl2, 1 mM dithiothreitol, 1 mM ethylene diamine tetraacetic acid (EDTA), 60 to 125 μM GTP and 20 to 50 nM Δ21 NS5B (HCV Strain 1B (BK, Genbank accession number M58335, or H77, Genbank accession number AF011751)) for 15 min at room temperature. The reaction was initiated by the addition of 20 μM CTP, 20 μM ATP, 1 μM ^3H-UTP (10 mCi/umol), 5 nM template RNA and 0.1 U/μl RNase inhibitor (RNasin, Promega), and allowed to proceed for 2 to 4 h at room temperature. Reaction volume was 50 μl. The reaction was terminated by the addition of 1 volume of 4 mM spermine in 10 mM Tris-Cl pH 8.0, 1 mM EDTA. After incubation for at least 15 min at room temperature, the precipitated RNA was captured by filtering through a GF/B filter (Millipore) in a 96 well format. The filter plate was washed three times with 200 μl each of 2 mM spermine, 10 mM Tris-Cl pH 8.0, 1 mM EDTA, and 2 times with ethanol. After air-drying, 30 μl of Microscint 20 scintillation cocktail (Packard) was added to each well, and the retained cpm were determined by scintillation counting. […] Retained cpm were plotted vs. inhibitor concentration and fit to equation 1 using non-linear regression (ref. 1) to obtain the IC50 values: Retained cpm=A[sqrt{(IC50+It−Et)^2+4*IC50*Et}−(IC50+It−Et)]
(§2) Ref. Morrison, J. F. and S. R. Stone. 1985. Approaches to the study and analysis of the inhibition of enzymes by slow- and tight-binding inhibitors. Comments Mol. Cell. Biophys. 2: 347-368.
(§3) The sequence of the template RNA used was: 5′-[…] […] […] […] […] […] […] […] […] […] […] […] […] […] […] […] […]-3′ (SEQ ID NO:1).

[2] = molecular target: T2, HCV polymerase 1B (Δ21 NS5B, HCV Strain 1B BK) (Hepatitis C virus genotype 1b, UniProt P26663); test: biochemical
T2 construct: 20 to 50 nM Δ21 NS5B
T2 sequence (P26663 2420-2989, stated change not applied): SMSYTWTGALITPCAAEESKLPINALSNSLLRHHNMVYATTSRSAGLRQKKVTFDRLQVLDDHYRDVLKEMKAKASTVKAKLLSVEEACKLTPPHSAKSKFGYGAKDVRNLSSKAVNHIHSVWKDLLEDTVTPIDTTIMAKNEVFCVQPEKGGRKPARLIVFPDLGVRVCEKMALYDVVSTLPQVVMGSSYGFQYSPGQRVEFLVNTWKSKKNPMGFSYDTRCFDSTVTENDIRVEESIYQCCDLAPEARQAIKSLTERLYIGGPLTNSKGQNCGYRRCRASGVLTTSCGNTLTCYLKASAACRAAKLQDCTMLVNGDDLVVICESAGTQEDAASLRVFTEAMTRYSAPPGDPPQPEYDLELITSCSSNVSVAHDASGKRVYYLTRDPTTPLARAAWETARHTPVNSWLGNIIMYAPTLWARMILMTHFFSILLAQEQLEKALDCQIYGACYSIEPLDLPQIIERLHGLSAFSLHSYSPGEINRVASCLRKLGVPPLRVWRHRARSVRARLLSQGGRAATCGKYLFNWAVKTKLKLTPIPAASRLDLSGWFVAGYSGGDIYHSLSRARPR
Procedure: as §1, §2, §3

[3] = tested on: genotype 1a-H77 subgenomic replicon cell line; test: HCV Polymerase Replicon Assay, genotype 1a-H77 (luciferase reporter); assay type: cell-based; conditions: read-out: EC50 1a
[4] = tested on: genotype 1b-Con1 subgenomic replicon cell line; test: HCV Polymerase Replicon Assay, genotype 1b-Con1 (luciferase reporter); assay type: cell-based; conditions: read-out: EC50 1b
[5] = Hepatitis C virus, 72 h, replicon 1a-H77, luciferase, three days
[6] = Hepatitis C virus, 72 h, replicon 1b-Con1, luciferase, three days

T1 sequence (P27958 2421-2990, stated change not applied): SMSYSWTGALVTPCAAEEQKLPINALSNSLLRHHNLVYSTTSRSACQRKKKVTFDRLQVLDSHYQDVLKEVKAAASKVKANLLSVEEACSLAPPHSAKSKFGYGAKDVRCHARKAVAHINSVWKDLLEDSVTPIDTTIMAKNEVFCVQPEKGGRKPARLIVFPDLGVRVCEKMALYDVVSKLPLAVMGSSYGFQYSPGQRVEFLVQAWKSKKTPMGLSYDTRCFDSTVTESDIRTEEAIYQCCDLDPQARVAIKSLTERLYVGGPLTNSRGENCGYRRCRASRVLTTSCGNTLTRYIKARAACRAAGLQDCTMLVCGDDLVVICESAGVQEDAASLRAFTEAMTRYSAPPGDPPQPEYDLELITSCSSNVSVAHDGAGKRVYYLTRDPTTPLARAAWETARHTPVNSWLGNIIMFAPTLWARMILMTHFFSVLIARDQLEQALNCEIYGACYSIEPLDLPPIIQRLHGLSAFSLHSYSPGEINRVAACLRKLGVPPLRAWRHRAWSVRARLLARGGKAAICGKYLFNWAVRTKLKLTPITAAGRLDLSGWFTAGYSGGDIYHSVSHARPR

Row | SMILES | IC50 ([1]; HCV polymerase 1a, read-out: IC50 1a) | IC50 ([2]; HCV polymerase 1b, read-out: IC50 1b) | EC50 ([3]; replicon 1a-H77, luciferase, three days) | EC50 ([4]; replicon 1b-Con1, luciferase, three days) | IC50 [1] | IC50 [2] | EC50 [3, 5] | EC50 [4, 6] | EC50 ([3]; Hepatitis C virus, 72 h) | EC50 ([4]; Hepatitis C virus, 72 h)
1 | COc1cc(NS(C)(=O)=O)ccc1/C=C/c1cc(N2CCC(=O)NC2=O)cc(C(C)(C)C)c1OC [IA-L1-1.27, N-(4-{(E)-2-[3-tert-Butyl-5-(dioxo-tetrahydro-pyrimidin-1-yl)-2-methoxy-phenyl]-vinyl}-3-methoxy-phenyl)-methanesulfonamide] | < 10 nM | 10 to 100 nM | 10 to 100 nM | < 10 nM | – | – | – | – | – | –
2 | COc1c(CCc2ccc(NS(C)(=O)=O)cc2)cc(N2CCC(=O)NC2=O)cc1C(C)(C)C [IA-L5-2-1.1, N-(4-(3-tert-butyl-5-(2,4-dioxotetrahydropyrimidin-1(2H)-yl)-2-methoxyphenethyl)phenyl)methanesulfonamide] | – | – | – | – | 10 to 100 nM | 10 to 100 nM | 100 to 1000 nM | 10 to 100 nM | – | –
3 | CC(C)(C)c1cc(CCc2ccc(NS(C)(=O)=O)cc2)cc(N2CCC(=O)NC2=O)c1 [IA-L5-2-1.2, N-(4-(3-tert-butyl-5-(2,4-dioxotetrahydropyrimidin-1(2H)-yl)phenethyl)phenyl)methane sulfonamide] | – | – | – | – | 10 to 100 nM | 10 to 100 nM | 100 to 1000 nM | 100 to 1000 nM | – | –
4 | COc1c(C2CC2c2ccc(NS(C)(=O)=O)cc2)cc(N2CCC(=O)NC2=O)cc1C(C)(C)C (stereo not shown) [IA-L8-1.1, N-(4-(2-(3-tert-butyl-5-(2,4-dioxotetrahydropyrimidin-1(2H)-yl)-2-methoxyphenyl)cyclopropyl)phenyl)methanesulfonamide] | – | – | – | – | 100 to 1000 nM | 100 to 1000 nM | 100 to 1000 nM | 100 to 1000 nM | – | –
5 | COc1c(/C=C/c2ccc(NS(C)(=O)=O)cc2)cc(-n2ccc(=O)[nH]c2=O)cc1C(C)(C)C [IB-L1-1.1, (E)-N-(4-(3-tert-butyl-5-(2,4-dioxo-3,4-dihydropyrimidin-1(2H)-yl)-2-methoxystyryl)phenyl)methanesulfonamide] | – | – | – | – | < 10 nM | < 10 nM | – | – | < 10 nM | < 10 nM
6 | COc1c(/C=C/c2ccc(NS(C)(=O)=O)cc2C(=O)O)cc(-n2ccc(=O)[nH]c2=O)cc1C(C)(C)C [IB-L1-1.4, (E)-2-(3-tert-butyl-5-(2,4-dioxo-3,4-dihydropyrimidin-1(2H)-yl)-2-methoxystyryl)-5-(methylsulfonamido)benzoic Acid] | – | – | – | – | < 10 nM | < 10 nM | – | – | 10 to 100 nM | < 10 nM
7 | COc1c(/C=C/c2ccc(NS(C)(=O)=O)c(F)c2)cc(-n2ccc(=O)[nH]c2=O)cc1C(C)(C)C [IB-L1-1.5, (E)-N-(4-(3-tert-butyl-5-(2,4-dioxo-3,4-dihydropyrimidin-1(2H)-yl)-2-methoxystyryl)-2-fluorophenyl)methanesulfonamide] | – | – | – | – | < 10 nM | < 10 nM | – | – | 10 to 100 nM | < 10 nM
8 | COc1c(/C=C/c2ccc(NS(C)(=O)=O)cc2C=O)cc(-n2ccc(=O)[nH]c2=O)cc1C(C)(C)C [IB-L1-1.6, N-(4-{(E)-2-[3-tert-Butyl-5-(2,4-dioxo-3,4-dihydro-2H-pyrimidin-1-yl)-2-methoxy-phenyl]-vinyl}-3-formyl-phenyl)-methanesulfonamide] | – | – | – | – | < 10 nM | 10 to 100 nM | – | – | < 10 nM | < 10 nM
9 | COC(=O)c1cc(NS(C)(=O)=O)ccc1/C=C/c1cc(-n2ccc(=O)[nH]c2=O)cc(C(C)(C)C)c1OC [IB-L1-1.7, (E)-methyl 2-(3-tert-butyl-5-(2,4-dioxo-3,4-dihydropyrimidin-1(2H)-yl)-2-methoxystyryl)-5-(methylsulfonamido)benzoate] | – | – | – | – | < 10 nM | 10 to 100 nM | – | – | < 10 nM | < 10 nM
10 | COc1c(/C=C/c2ccc(NS(C)(=O)=O)cc2C=NO)cc(-n2ccc(=O)[nH]c2=O)cc1C(C)(C)C [IB-L1-1.8, N-[4-{(E)-2-[3-tert-Butyl-5-(2,4-dioxo-3,4-dihydro-2H-pyrimidin-1-yl)-2-methoxy-phenyl]-vinyl}-3-(hydroxyimino-methyl)-phenyl]-methanesulfonamide] | – | – | – | – | < 10 nM | 10 to 100 nM | – | – | 10 to 100 nM | < 10 nM
11 | COCCNC(=O)c1cc(NS(C)(=O)=O)ccc1/C=C/c1cc(-n2ccc(=O)[nH]c2=O)cc(C(C)(C)C)c1OC [IB-L1-1.9, 2-{(E)-2-[3-tert-Butyl-5-(2,4-dioxo-3,4-dihydro-2H-pyrimidin-1-yl)-2-methoxy-phenyl]-vinyl}-5-methanesulfonylamino-N-(2-methoxy-ethyl)-benzamide] | – | – | – | – | < 10 nM | 10 to 100 nM | – | – | 10 to 100 nM | < 10 nM
12 | COc1c(/C=C/c2ccc(NS(C)(=O)=O)cc2CO)cc(-n2ccc(=O)[nH]c2=O)cc1C(C)(C)C [IB-L1-1.10, (E)-N-(4-(3-tert-butyl-5-(2,4-dioxo-3,4-dihydropyrimidin-1(2H)-yl)-2-methoxystyryl)-3-(hydroxymethyl)phenyl)methanesulfonamide] | – | – | – | – | < 10 nM | 10 to 100 nM | – | – | < 10 nM | < 10 nM
13 | CCOC(=O)c1cc(NS(C)(=O)=O)ccc1/C=C/c1cc(-n2ccc(=O)[nH]c2=O)cc(C(C)(C)C)c1OC [IB-L1-1.11, 2-{(E)-2-[3-tert-Butyl-5-(2,4-dioxo-3,4-dihydro-2H-pyrimidin-1-yl)-2-methoxy-phenyl]-vinyl}-5-methanesulfonylamino-benzoic acid ethyl ester] | – | – | – | – | < 10 nM | 10 to 100 nM | – | – | 10 to 100 nM | < 10 nM
14 | CC(C)(C)c1cc(-n2ccc(=O)[nH]c2=O)cc(/C=C/c2ccc(NS(C)(=O)=O)cc2)c1Cl [IB-L1-1.12, N-(4-{(E)-2-[3-tert-Butyl-2-chloro-5-(2,4-dioxo-3,4-dihydro-2H-pyrimidin-1-yl)-phenyl]-vinyl}-phenyl)-methanesulfonamide] | – | – | – | – | < 10 nM | 10 to 100 nM | 10 to 100 nM | 10 to 100 nM | – | –
15 | COCc1cc(NS(C)(=O)=O)ccc1/C=C/c1cc(-n2ccc(=O)[nH]c2=O)cc(C(C)(C)C)c1OC [IB-L1-1.13, (E)-N-(4-(3-tert-butyl-5-(2,4-dioxo-3,4-dihydropyrimidin-1(2H)-yl)-2-methoxystyryl)-3-(methoxymethyl)phenyl)methanesulfonamide] | – | – | – | – | < 10 nM | 10 to 100 nM | – | – | 10 to 100 nM | < 10 nM
16 | COc1c(/C=C/c2ccc(NS(C)(=O)=O)cc2C(=O)N(C)C)cc(-n2ccc(=O)[nH]c2=O)cc1C(C)(C)C [IB-L1-1.14, 2-{(E)-2-[3-tert-Butyl-5-(2,4-dioxo-3,4-dihydro-2H-pyrimidin-1-yl)-2-methoxy-phenyl]-vinyl}-5-methanesulfonylamino-N,N-dimethyl-benzamide] | – | – | – | – | < 10 nM | 10 to 100 nM | – | – | 10 to 100 nM | < 10 nM
17 | COc1c(/C=C/c2cc(F)c(NS(C)(=O)=O)cc2C)cc(-n2ccc(=O)[nH]c2=O)cc1C(C)(C)C [IB-L1-1.15, (E)-N-(4-(3-tert-butyl-5-(2,4-dioxo-3,4-dihydropyrimidin-1(2H)-yl)-2-methoxystyryl)-2-fluoro-5-methylphenyl)methanesulfonamide] | – | – | – | – | < 10 nM | 10 to 100 nM | – | – | < 10 nM | < 10 nM
18 | COc1c(/C=C/c2ccc(NS(C)(=O)=O)cc2-c2ncc[nH]2)cc(-n2ccc(=O)[nH]c2=O)cc1C(C)(C)C [IB-L1-1.16, (E)-N-(4-(3-tert-butyl-5-(2,4-dioxo-3,4-dihydropyrimidin-1(2H)-yl)-2-methoxystyryl)-3-(1H-imidazol-2-yl)phenyl)methanesulfonamide] | – | – | – | – | < 10 nM | 10 to 100 nM | – | – | 100 to 1000 nM | 10 to 100 nM
19 | CNC(=O)c1cc(NS(C)(=O)=O)ccc1/C=C/c1cc(-n2ccc(=O)[nH]c2=O)cc(C(C)(C)C)c1OC [IB-L1-1.17, 2-{(E)-2-[3-tert-butyl-5-(2,4-dioxo-3,4-dihydro-2H-pyrimidin-1-yl)-2-methoxy-phenyl]-vinyl}-5-methanesulfonylamino-N-methyl-benzamide] | – | – | – | – | < 10 nM | 10 to 100 nM | – | – | 10 to 100 nM | < 10 nM
